Laboratory results published in PMC3914206.

Columns and labels:
panel of 442 kinases [1] = target: T1, panel of 442 kinases (Homo sapiens, UniProt Q13043); assay type: binding; conditions: Compound Concentration 10 µM
T1 construct: purchased KINOMEscan
T1 sequence (Q13043 1-487): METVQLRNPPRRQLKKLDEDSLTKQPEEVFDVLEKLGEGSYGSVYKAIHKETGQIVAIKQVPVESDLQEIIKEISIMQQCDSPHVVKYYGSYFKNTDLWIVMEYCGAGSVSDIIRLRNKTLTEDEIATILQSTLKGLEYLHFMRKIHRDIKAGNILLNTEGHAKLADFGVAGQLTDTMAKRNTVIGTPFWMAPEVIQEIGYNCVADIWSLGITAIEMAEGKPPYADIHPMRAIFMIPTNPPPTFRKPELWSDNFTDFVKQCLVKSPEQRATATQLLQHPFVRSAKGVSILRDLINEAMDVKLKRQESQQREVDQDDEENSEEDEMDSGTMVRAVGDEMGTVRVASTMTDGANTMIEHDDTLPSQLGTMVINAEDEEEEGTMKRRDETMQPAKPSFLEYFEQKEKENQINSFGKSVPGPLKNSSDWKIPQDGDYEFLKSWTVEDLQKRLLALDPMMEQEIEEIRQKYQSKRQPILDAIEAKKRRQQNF
From the text: (§1) We assessed the selectivity of members of this scaffold using the KINOMEscan methodology across a near comprehensive panel of 442 kinases [[18,27]].

panel of 442 kinases [2] = target: T2, panel of 442 kinases (Homo sapiens, UniProt P33981); assay type: binding; conditions: kinase TTK; compound concentration 10 µM
T2 construct: purchased KINOMEscan
T2 sequence (P33981 1-857): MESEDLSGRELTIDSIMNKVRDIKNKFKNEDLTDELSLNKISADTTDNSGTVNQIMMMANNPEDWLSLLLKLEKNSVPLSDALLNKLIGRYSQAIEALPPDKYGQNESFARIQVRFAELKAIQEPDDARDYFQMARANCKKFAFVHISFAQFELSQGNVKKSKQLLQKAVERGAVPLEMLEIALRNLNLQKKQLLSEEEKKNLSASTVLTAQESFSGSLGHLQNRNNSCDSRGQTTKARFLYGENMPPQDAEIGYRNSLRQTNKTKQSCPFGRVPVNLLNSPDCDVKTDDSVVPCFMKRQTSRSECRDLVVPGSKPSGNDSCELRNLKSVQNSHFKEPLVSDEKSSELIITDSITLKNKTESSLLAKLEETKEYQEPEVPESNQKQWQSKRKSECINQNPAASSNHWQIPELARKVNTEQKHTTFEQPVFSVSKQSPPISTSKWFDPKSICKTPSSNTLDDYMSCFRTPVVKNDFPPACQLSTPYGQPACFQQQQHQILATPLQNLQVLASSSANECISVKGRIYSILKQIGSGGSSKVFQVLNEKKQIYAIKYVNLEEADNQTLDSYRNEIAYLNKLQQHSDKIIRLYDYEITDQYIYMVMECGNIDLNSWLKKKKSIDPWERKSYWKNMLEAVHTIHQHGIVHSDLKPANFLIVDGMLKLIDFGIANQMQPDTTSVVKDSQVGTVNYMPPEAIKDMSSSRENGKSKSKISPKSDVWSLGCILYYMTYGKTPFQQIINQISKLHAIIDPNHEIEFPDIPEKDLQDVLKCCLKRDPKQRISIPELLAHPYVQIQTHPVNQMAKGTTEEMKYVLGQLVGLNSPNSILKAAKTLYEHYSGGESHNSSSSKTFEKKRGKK
From the text: as §1

| Structure (SMILES) | KINOMEscan: MST1 (panel of 442 kinases [1]) | % Ctrl, TTK (panel of 442 kinases [2]) |
| --- | --- | --- |
| COc1cc(C(=O)N2CCC(N3CCN(C)CC3)CC2)ccc1Nc1ncc2c(n1)N(C1CCCC1)c1ccccc1C(=O)N2C [Compound 25, 11-cyclopentyl-2-((2-methoxy-4-(4-(4-methylpiperazin-1-yl)piperidine-1-carbonyl)phenyl)amino)-5-methyl-5H-benzo[e]pyrimido[5,4-b][1,4]diazepin-6(11H)-one] | 100 | 94 % Ctrl |
| COc1cc(C(=O)N2CCC(N3CCN(C)CC3)CC2)ccc1Nc1ncc2c(n1)N1CCc3cccc(c31)C(=O)N2C [Compound 24] | 95 | 46 % Ctrl |
| COc1cc(C(=O)N2CCC(N3CCN(C)CC3)CC2)ccc1Nc1ncc2c(n1)N(C)c1ccccc1C(=O)N2C [15 (LRRK2-IN-1)] | 100 | 28 % Ctrl |
| CCOc1cc(C(=O)N2CCC(N3CCN(C)CC3)CC2)ccc1Nc1ncc2c(n1)N(C1CCCC1)c1ccccc1C(=O)N2C [Compound 26] | 100 | 49 % Ctrl |
